Assay results taken from patent US8575156B2, “Cyclic inhibitors of 11β-hydroxysteroid dehydrogenase 1” (Vitae Pharmaceuticals, Inc., priority 2007, dated 2013).
Where two headings read alike, the source gives them in different places.

Target: 11β-HSD1 (Homo sapiens, UniProt P28845)
Assay: biochemical
Settings: for IC50: IC50 Range, Biological Test Example 1, microsomes from CHO cells overexpressing human 11β-HSD1; for inhibition at 0.1111 µM: read-out: Average % inhibition at 111.1 nM, Biological Test Example 1, 111.1 nM compound
[1] = read-out: Average % inhibition at 100 nM, Biological Test Example 1, 100 nM

Chain of 11β-HSD1 (P28845 whole entry): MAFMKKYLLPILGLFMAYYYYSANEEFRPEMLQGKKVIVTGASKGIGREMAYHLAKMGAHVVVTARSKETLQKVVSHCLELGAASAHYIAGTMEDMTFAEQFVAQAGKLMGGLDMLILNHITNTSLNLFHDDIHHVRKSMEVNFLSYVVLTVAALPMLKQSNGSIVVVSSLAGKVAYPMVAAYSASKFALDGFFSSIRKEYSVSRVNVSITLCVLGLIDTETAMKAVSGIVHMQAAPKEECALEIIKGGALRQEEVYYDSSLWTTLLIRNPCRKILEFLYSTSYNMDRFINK

C=CCCC1(c2ccc(F)cc2)CCN([C@@H](C)c2ccc(OC(F)F)cc2)C(=O)O1 (single isomer, unassigned) [EXAMPLE 323 Isomer 1] gave an IC50 of less than 100 nM and an inhibition at 0.1 µM (read-out: Average % inhibition at 100 nM) of 85.9%.

Work on CC(O)C[C@]1(c2ccc(F)cc2)CCN([C@@H](C)c2ccc(Br)cc2)C(=O)O1 (single isomer, unassigned) [EXAMPLE 371 Isomer 1] yielded an IC50 of less than 100 nM and an inhibition at 0.1 µM [1] of 98.4%.

Molecule CC(O)CC[C@]1(c2ccc(F)cc2)CCN([C@@H](C)c2ccc(Cl)cc2)C(=O)O1 (single isomer, unassigned) [EXAMPLE 383 Isomer 1] has an IC50 of less than 100 nM and an inhibition at 0.1 µM [1] of 94.7%.

CC(O)C[C@]1(c2ccc(F)cc2)CCN([C@@H](C)c2ccc(C(F)(F)F)cc2)C(=O)O1 (single isomer, unassigned) [EXAMPLE 388 Isomer 1] gave an IC50 of less than 100 nM and an inhibition at 0.1 µM [1] of 92.8%.

CC(O)CC[C@]1(c2ccc(F)cc2)CCN([C@@H](C)c2ccc(F)cc2)C(=O)O1 (single isomer, unassigned) [EXAMPLE 411 Isomer 1] was tested, and the IC50 was less than 100 nM and the inhibition at 0.1 µM [1] was 88.7%.

COc1ccc([C@H](C)N2CC[C@](C)(c3ccc(CO)cc3)OC2=O)cc1 (single isomer, unassigned) [EXAMPLE 429 Isomer 1] was tested, and the IC50 was less than 100 nM and the inhibition at 0.1 µM [1] was 77.9%.

Work on COc1ccc([C@H](C)N2CC[C@@](C)(c3ccc(CO)cc3)OC2=O)cc1 (single isomer, unassigned) [EXAMPLE 429 Isomer 2] yielded an IC50 greater than 100 nM and an inhibition at 0.1 µM [1] of 23%.

C=CC[C@@]1(c2ccc(F)cc2)CCN([C@@H](C)c2ccc(Cl)c(F)c2)C(=O)O1 (single isomer, unassigned) [EXAMPLE 497 Isomer 1] showed an IC50 of less than 100 nM.

For C=CC[C@]1(c2ccc(F)cc2)CCN([C@@H](C)c2ccc(Cl)c(F)c2)C(=O)O1 (single isomer, unassigned) [EXAMPLE 497 Isomer 2], the IC50 was less than 100 nM.

In the case of C=CC[C@@]1(c2ccc(F)cc2)CCN([C@H](C)c2ccc(Cl)c(F)c2)C(=O)O1 (single isomer, unassigned) [EXAMPLE 497 Isomer 3], the IC50 is reported as greater than 100 nM.

With C=CC[C@]1(c2ccc(F)cc2)CCN([C@H](C)c2ccc(Cl)c(F)c2)C(=O)O1 (single isomer, unassigned) [EXAMPLE 497 Isomer 4] the IC50 was less than 100 nM.

C[C@@H](c1ccc(Br)cc1)N1CC[C@@](CCC(N)=O)(c2ccc(F)cc2F)OC1=O (single isomer, unassigned) [EXAMPLE 504 Isomer 1] was tested, and the IC50 was less than 100 nM and the inhibition at 0.1 µM [1] was 49.9%.

For C[C@@H](c1ccc(Br)cc1)N1CC[C@](CCC(N)=O)(c2ccc(F)cc2F)OC1=O (single isomer, unassigned) [EXAMPLE 504 Isomer 2], the IC50 was less than 100 nM and the inhibition at 0.1 µM [1] was 94.4%.

C[C@@H](c1ccc(Br)cc1)N1CC[C@@](C)(c2ccc(F)cc2)OC1=O (single isomer, unassigned) [EXAMPLE 518 Isomer 1] was tested, and the IC50 was less than 100 nM and the inhibition at 0.1 µM [1] was 92.2%.

C[C@@H](c1ccc(Br)cc1)N1CC[C@](C)(c2ccc(F)cc2)OC1=O (single isomer, unassigned) [EXAMPLE 518 Isomer 2] showed an IC50 of less than 100 nM and an inhibition at 0.1 µM [1] of 98%.

Cc1cc(-c2ccc([C@H](C)N3CCC(C)(c4ccc(F)cc4)OC3=O)cc2)ccn1 (single isomer, unassigned) [EXAMPLE 519 Isomer 1] showed an IC50 of less than 100 nM.

Molecule CC(C[C@]1(c2ccc(F)cc2)CCN([C@@H](C)c2ccc(Br)cc2)C(=O)O1)C(N)=O (single isomer, unassigned) [EXAMPLE 523 Isomer 1] has an IC50 of less than 100 nM and an inhibition at 0.1 µM [1] of 94.5%.

Molecule CC(CO)C[C@]1(c2ccc(F)cc2)CCN([C@@H](C)c2ccc(Br)cc2)C(=O)O1 (single isomer, unassigned) [EXAMPLE 577 Isomer 1] has an IC50 of less than 100 nM and an inhibition at 0.1 µM [1] of 99.5%.

Work on CC1(c2ccccc2)CCN(c2cccc(-c3ccccc3Cl)c2)C(=O)O1 (centres unmarked) [EXAMPLE 10, 3-(2′-chlorobiphenyl-3-yl)-6-methyl-6-phenyl-1,3-oxazinan-2-one] yielded an IC50 of less than 100 nM and an inhibition at 0.1111 µM of 90.5%.

CC1(c2ccccc2)CCN(c2cccc(-c3ccc(S(C)(=O)=O)cc3)c2)C(=O)O1 (centres unmarked) [EXAMPLE 11, 3-(4′-Methanesulfonyl-biphenyl-3-yl)-6-methyl-6-phenyl-[1,3]oxazinan-2-one] was tested, and the IC50 was 100 to 1000 nM and the inhibition at 0.1111 µM was 28.4%.

For CC1(c2ccccc2)CCN(c2cccc(-c3ccccc3C#N)c2)C(=O)O1 (centres unmarked) [EXAMPLE 12, 3′-(6-Methyl-2-oxo-6-phenyl-[1,3]oxazinan-3-yl)-biphenyl-2-carbonitrile], the IC50 was less than 100 nM and the inhibition at 0.1111 µM was 86.4%.

For CC(C)NS(=O)(=O)c1ccc(-c2cccc(N3CCC(C)(c4ccccc4)OC3=O)c2)cc1 (centres unmarked) [EXAMPLE 13, N-isopropyl-3′-(6-methyl-2-oxo-6-phenyl-1,3-oxazinan-3-yl)biphenyl-4-sulfonamide], the IC50 was 100 to 1000 nM and the inhibition at 0.1111 µM was 19.2%.

Molecule CN(C)S(=O)(=O)c1cccc(-c2cccc(N3CCC(C)(c4ccccc4)OC3=O)c2)c1 (centres unmarked) [EXAMPLE 14, N,N-dimethyl-3′-(6-methyl-2-oxo-6-phenyl-1,3-oxazinan-3-yl)biphenyl-3-sulfonamide] has an IC50 of 100 to 1000 nM and an inhibition at 0.1111 µM of 21.9%.
